ChEMBL document CHEMBL1201862, “PubChem BioAssay data set” (2004)
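Where inhibition never reached the appropriate level, the endpoint shown equals the highest concentration tested. Otherwise, values were interpolated linearly from a five-concentration, 48-hour dose response in 96-well plates. GI50: concentration for 50% inhibition of growth.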 Calls of active or inactive are those of the source. No stated cut-off is given here; in the data, active = GI50 up to about 1.1 µM and inactive = higher.

What was measured:
Experiment in all cases: inhibition of tumour cell growth, NCI panel, 48 h
[1] = system: SK-MEL-5
[2] = system: NCI-H23
[3] = system: RXF 393
[4] = system: BT-549
[5] = system: LOX IMVI
[6] = system: UACC-257
[7] = system: HCT-15
[8] = system: A549
[9] = system: CCRF-CEM
[10] = system: U-251
[11] = system: OVCAR-5
[12] = system: HCT-116
[13] = system: TK-10
[14] = system: UO-31
[15] = system: COLO 205
[16] = system: NCI-H460
[17] = system: K562
[18] = system: UACC-62
[19] = system: SK-OV-3
[20] = system: SK-MEL-2

| SMILES | GI50 [1] | GI50 [2] | GI50 [3] | GI50 [4] | GI50 [5] | GI50 [6] | GI50 [7] [µM] | GI50 [8] | GI50 [9] | GI50 [10] | GI50 [11] | GI50 [12] | GI50 [13] | GI50 [14] | GI50 [15] | GI50 [16] | GI50 [17] | GI50 [18] | GI50 [19] | GI50 [20] |
| --- | --- | --- | --- | --- | --- | --- | --- | --- | --- | --- | --- | --- | --- | --- | --- | --- | --- | --- | --- | --- |
| CC1=CC(C/C(C)=C/COc2ccc3ccc(=O)oc3c2)OC1=O (stereo not given) | 53.6 µM (inactive) | 50.7 µM (inactive) | > 100 µM (inactive) | 76.2 µM (inactive) | > 100 µM (inactive) | 47.4 µM (inactive) | 95.9 | > 100 µM (inactive) | > 100 µM (inactive) | 90.4 µM (inactive) | > 100 µM (inactive) | 92.7 µM (inactive) | > 100 µM (inactive) | > 100 µM (inactive) | > 100 µM (inactive) | > 100 µM (inactive) | 59.8 µM (inactive) | > 100 µM (inactive) | > 100 µM (inactive) |  |
| CCCCCCCC1(N=[N+]=[N-])C(=O)c2ccccc2N(C)C1=O (stereo not given) | 69.8 µM (inactive) | 48 µM (inactive) | 69.8 µM (inactive) | 88.5 µM (inactive) | 97.1 µM (inactive) | 57.8 µM (inactive) | > 100 | 68.5 µM (inactive) | 7.55 µM (inactive) | > 100 µM (inactive) | > 100 µM (inactive) | 61 µM (inactive) | > 100 µM (inactive) |  | > 100 µM (inactive) | > 100 µM (inactive) |  | 72.9 µM (inactive) | > 100 µM (inactive) |  |
| CC[C@@H]1CC[C@@H]2[C@H](CC[C@]3(C)[C@@H](OS(=O)(=O)c4ccc(C)cc4)CC[C@@H]23)[C@H]1CO | 42.6 µM (inactive) | > 100 µM (inactive) | > 100 µM (inactive) | > 100 µM (inactive) | 23.8 µM (inactive) | 80.2 µM (inactive) | 82.4 | > 100 µM (inactive) | > 100 µM (inactive) | > 100 µM (inactive) | > 100 µM (inactive) | > 100 µM (inactive) | > 100 µM (inactive) | 21.3 µM (inactive) | 12.4 µM (inactive) | > 100 µM (inactive) | 69.2 µM (inactive) |  |  |  |
| COC(=O)c1ccc(/C=C2\Oc3cc(O)ccc3C2=O)cc1 | 67 µM (inactive) | 42.3 µM (inactive) | 27.9 µM (inactive) | 39.8 µM (inactive) |  | > 100 µM (inactive) | 53.3 | 77.3 µM (inactive) | 38.2 µM (inactive) | 48.8 µM (inactive) |  | 63.5 µM (inactive) | 53 µM (inactive) | 46.3 µM (inactive) | > 100 µM (inactive) | > 100 µM (inactive) | 47.8 µM (inactive) | > 100 µM (inactive) | > 100 µM (inactive) |  |
| COC(=O)C1(Cc2ccc3c(c2)CCC3)Cc2ccc3c(c2C1)CCC3 (stereo not given) | 16.6 µM (inactive) | 1.48 µM (inactive) | 24 µM (inactive) | 21.6 µM (inactive) | 16.8 µM (inactive) | 5.61 µM (inactive) | 25 | 27.4 µM (inactive) | 70.6 µM (inactive) | 17.3 µM (inactive) |  | 18.1 µM (inactive) | 49.7 µM (inactive) | 18.7 µM (inactive) | 19 µM (inactive) | 24.8 µM (inactive) | 85.5 µM (inactive) | 32 µM (inactive) | 52.8 µM (inactive) |  |
| O=C(NCCCCCCCCNC(=O)c1cc(-c2ccccc2)nc2ccccc12)c1cc(-c2ccccc2)nc2ccccc12 | > 100 µM (inactive) | > 100 µM (inactive) | 2.48 µM (inactive) | 57.7 µM (inactive) | > 100 µM (inactive) | > 100 µM (inactive) | > 100 | > 100 µM (inactive) | > 100 µM (inactive) | 35.3 µM (inactive) | > 100 µM (inactive) | > 100 µM (inactive) | > 100 µM (inactive) | > 100 µM (inactive) | > 100 µM (inactive) | > 100 µM (inactive) | > 100 µM (inactive) | > 100 µM (inactive) | > 100 µM (inactive) |  |
| COc1cc2c(cc1OC)C(=O)C1(C2)[C@H](c2ccccc2)C2C(=O)c3cc(OC)c(OC)cc3C2[C@H]1c1ccccc1 (stereo not given in full) | > 100 µM (inactive) | > 100 µM (inactive) | 63.5 µM (inactive) | > 100 µM (inactive) | > 100 µM (inactive) | > 100 µM (inactive) | > 100 | 31 µM (inactive) | > 100 µM (inactive) | > 100 µM (inactive) | > 100 µM (inactive) | > 100 µM (inactive) | > 100 µM (inactive) | > 100 µM (inactive) | > 100 µM (inactive) | 49.1 µM (inactive) | > 100 µM (inactive) | > 100 µM (inactive) | > 100 µM (inactive) |  |
| COC(=O)c1c2c(c3[nH]c4ccccc4c3c1C(=O)OC)C(=O)C1=C(C2=O)C2(Cl)C(Cl)C(Cl)C1(Cl)C2(Cl)Cl (stereo not given) | 1.31 µM (inactive) | 1.7 µM (inactive) | 1.71 µM (inactive) | 1.96 µM (inactive) | 1.85 µM (inactive) |  | 1.48 | 3.21 µM (inactive) | 1.89 µM (inactive) | 2.42 µM (inactive) | 4.69 µM (inactive) | 2.02 µM (inactive) | 3.56 µM (inactive) | 2.82 µM (inactive) | 1.81 µM (inactive) | 3.2 µM (inactive) | 2.01 µM (inactive) | 1.99 µM (inactive) | 4.36 µM (inactive) |  |
| CSC(=S)CC(O)[C@@H]1CC2c3ccccc3C1c1ccccc12 (stereo not given in full) | 13.4 µM (inactive) | 7.11 µM (inactive) | 2.19 µM (inactive) | 13.2 µM (inactive) | 6.35 µM (inactive) |  | 9.73 | 17.1 µM (inactive) | 1.95 µM (inactive) | 3.55 µM (inactive) | 16.7 µM (inactive) | 8.11 µM (inactive) | 15.2 µM (inactive) | 11.7 µM (inactive) | 18.1 µM (inactive) | 14.6 µM (inactive) | 4.56 µM (inactive) | 12.1 µM (inactive) | 15.3 µM (inactive) |  |
| CCOC(=O)c1ccc(-n2nnc(C(N)=O)c2O)cc1 | > 100 µM (inactive) | > 100 µM (inactive) | > 100 µM (inactive) | > 100 µM (inactive) |  | > 100 µM (inactive) | > 100 | > 100 µM (inactive) | > 100 µM (inactive) | > 100 µM (inactive) | > 100 µM (inactive) | > 100 µM (inactive) | > 100 µM (inactive) | > 100 µM (inactive) | > 100 µM (inactive) | > 100 µM (inactive) | > 100 µM (inactive) | > 100 µM (inactive) | > 100 µM (inactive) | > 100 µM (inactive) |
| Oc1cccc2c1[nH]c1c(C3=C[C@@]4(O)CC/C=C\CCCCN5CC[C@@H]3[C@]3(CC6/C=C\CCCCN6[C@H]34)C5)nccc12 (stereo not given in full) | 1.59 µM (inactive) | 0.912 µM (active) |  | 1.81 µM (inactive) | 0.736 µM (active) | 1.68 µM (inactive) | 0.718 | 2.04 µM (inactive) | 0.973 µM (active) | 1.08 µM (active) | 1.07 µM (active) | 1.38 µM (inactive) | 1.9 µM (inactive) | 1.44 µM (inactive) | 0.787 µM (active) | 0.65 µM (active) | 0.607 µM (active) | 1.47 µM (inactive) | 1.94 µM (inactive) | 1.47 µM (inactive) |
